Source: patent publication US10130677B2, “Antimicrobial peptide and uses thereof” (priority 2013, dated 2018)
Read-outs that look alike come from different tables or passages of the source.

Tests used:
[1] = test system: LTA (S. aureus)-induced IL-8 production; assay: LTA neutralization in whole human blood; format: cell-based
Excerpt: (§1) The term “anti-inflammatory activity” of a polypeptide as used herein refers to inhibiting, reducing or preventing an inflammatory response in a subject that has been infected by microbes, e.g. bacteria, viruses, fungi, and/or parasites. Anti-inflammatory activity of polypeptides of the invention is achieved by inhibiting, reducing or preventing the release of pro-inflammatory microbial compounds, such as lipoteichoic acid (LTA), peptidoglycan (PG) and/or lipopolysaccharides (LPS). Anti-inflammatory activity can be measured by methods known in the art. Examples of such method are a LPS neutralization assay and a LTA neutralization assay as described in the Examples of this application. In such method, a polypeptide of the invention is mixed with a fixed concentration of LPS or LTA, such as 500 ng/ml LPS or 2 mg/ml LTA, and incubated for 30 min. Thereafter, these mixtures were added to diluted fresh human whole blood and 20 hours thereafter the level of cytokines (e.g. 1L-8 for LTA and 1L-12p40 for LPS) in the blood sample are measured by ELISA.
(§2) Peptides were pre-incubated with 500 ng/ml LPS (E. coli 054) or 2 mg/ml LTA (S. aureus, endotoxin-free) or 1×10^9 CFU/ml of UV-killed S. aureus JAR060131 for 30 min at 37° C. Diluted whole human blood was stimulated with the peptide-LPS/LTA/S. aureus mixtures for 20 hours at 37° C. IL-12p40 and IL-8 levels in supernatants were determined using ELISA.

S. aureus JAR060131 = format: cell-based, Staphylococcus aureus; conditions: approx. 1 × 10^6 CFU/ml S. aureus JAR, within 2 hrs (Table 2)
Procedure: Polypeptides of the invention preferably have an in vitro IC99.9 of at most 150 μM after 2 hours at 37° C. against at least one microbial species in the presence of 50% plasma. Said IC99.9 is preferably determined in accordance with a method for determining the antimicrobial activity as described herein in the Examples. Said method described in the Examples for determining antimicrobial activity of microbes not associated with biofilm involves the mixing of 50 microL of a solution of a polypeptide in PBS with addition of human plasma at a final concentration of 50% and 20 microL of bacterial suspension with 5×10^6 CFU per mL of PBS in a well. After incubation of this mixture for 2 hours at 37° C. under shaking conditions, a sample is used for assessment of the bacterial counts. The lowest peptide concentration at which there is 99.9% of bacteria killed, is called the inhibitory concentration (IC) 99.9. Bacterial counts can be determined by manual CFU counting. For determining antibacterial activity for instance 1×10^6 CFU/ml bacteria are used, for determining antifungal activity for instance 1×10^5 cells/ml are used.
(§3) Peptides were incubated with 1×10^6 CFU/ml of a mid-logarithmic culture of S. aureus JAR060131, methicillin resistant S. aureus (MRSA) LUH14616, Staphylococcus epidermidis RP62a, and Pseudomonas aeruginosa PAO1 in PBS without or with addition of pooled human plasma (Sanquin, Amsterdam, the Netherlands) at a final concentration of 50%. Antimicrobial activity is expressed as the 99.9% lethal concentration (LC99.9), i.e., the lowest peptide concentration which killed ≥99.9% of bacteria after 2 hours of incubation at 37° C. under shaking conditions.

[2] = test system: LPS (E. coli 054)-induced IL-12p40 production; assay: LPS neutralization in whole human blood; format: cell-based; conditions: LPS-induced IL-12p40; blood from two donors
Excerpt: as §1, §2

[3] = test system: UV-killed S. aureus JAR060131-induced IL-8 production; assay: S. aureus neutralization in whole human blood; format: cell-based
Procedure: as §2

[4] = test system: S. aureus JAR060131 biofilm formation; format: cell-based, Staphylococcus aureus
Procedure: After solubilization with ethanol, the optical density at 590 nm is determined as a measure of biofilm mass.
Peptides were incubated with 1×10^8 CFU/ml of S. aureus JAR060131 in biofilm-adjusted BM2 in 96-wells polypropylene plates as described in Antimicrob Agents Chemother 2012; 56: 2696-2704. After 24 hours incubation at 37° C., planktonic bacteria were removed by four washes with PBS and biofilms were stained with crystal violet. After solubilization with ethanol, the optical density at 590 nm was determined as a measure of biofilm mass.
To assess the antibiofilm activity of the peptides in the presence of plasma, 96-wells polypropylene plates were coated with plasma by overnight incubation with 20% plasma at 4° C. Wells were washed once with sterile water and inoculated with S. aureus and peptides as described above.

[5] = test system: Staphylococcus epidermidis RP62a; format: cell-based; conditions: 50% plasma
Procedure: as §3

A. niger PagsA-lux = assay: Effect on fungal growth; format: cell-based, Aspergillus niger; conditions: 25% plasma; light micrographs only, 16 hours (FIG. 2)
Procedure: The effect of the peptides on fungal growth was assessed using Aspergillus niger. Peptides were incubated with 7.5×10^4 spores/ml of A. niger PagsA-lux in PBS without or with addition of pooled human plasma at a final concentration of 25%. As positive control, spores were treated with the antifungal caspofungin (Cancidas). Absorbance was measured over time and at 16 hours, fungal growth was visualized using light microscopy.

Ac-LKRLYKRLAKLIKRLYRYLKKPVR-NH2 [Peptide P145, J LKRLYKRLAKLIKRLYRYLKKPVR B]
fold increased LTA-neutralizing ability versus OP-145 [1]: 4 fold
IC50 ([1]; LTA-induced IL-8, blood from one donor): 0.195 µM
IC99.9 (S. aureus JAR060131; 50% plasma): 25.6 µM
IC99.9 (S. aureus JAR060131; PBS): 1.6 µM
IC90 [2]: 0.75 nM
fold higher concentration than OP-145 needed to inhibit S. aureus-induced IL-8 production for >50% [3]: 8 fold
IC50 ([3]; UV-killed S. aureus JAR060131-induced IL-8, blood from one donor): 1.56 µM
IC50 ([4]; JAR060131 biofilm formation, 24 h): 6.4 µM
concentration needed to inhibit biofilm formation for 50%, relative to OP-145 and P159 ([4]; plasma-coated wells (FIG. 3B)): two-fold higher concentration
higher bactericidal activity as compared to OP-145 [5]: 43 fold
concentration inhibiting A. niger growth (A. niger PagsA-lux): 102.4 µM
